Test results: PubChem BioAssay (NCI)
Where “and” joins values, the source holds several entries; their conditions need not be identical. Equal values may be shown once.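 Exposure lasted 48 hours, with cells grown in 96-well plates and compounds tested at five concentrations. GI50 = concentration required for 50% inhibition of growth. The concentration for full growth arrest is given as TGI.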

Key:
Assay in all cases: NCI-60 cell line screen, 48 h
MDA-MB-435 = tested on: MDA-MB-435
MDA-MB-231 breast = tested on: MDA-MB-231 breast
RPMI-8226 leukemia = tested on: RPMI-8226 leukemia
MALME-3M melanoma = tested on: MALME-3M melanoma
COLO 205 colon = tested on: COLO 205 colon
SK-MEL-2 melanoma = tested on: SK-MEL-2 melanoma
OVCAR-5 ovarian = tested on: OVCAR-5 ovarian
ACHN renal = tested on: ACHN renal
OVCAR-4 ovarian = tested on: OVCAR-4 ovarian
TK-10 renal = tested on: TK-10 renal
CAKI-1 renal = tested on: CAKI-1 renal
MDA-N = tested on: MDA-N
RXF 393 renal = tested on: RXF 393 renal
UACC-62 melanoma = tested on: UACC-62 melanoma
UO-31 renal = tested on: UO-31 renal
SF-295 CNS = tested on: SF-295 CNS
SR leukemia = tested on: SR leukemia
EKVX NSCLC = tested on: EKVX NSCLC
SF-268 CNS = tested on: SF-268 CNS
NCI/ADR-RES ovarian = tested on: NCI/ADR-RES ovarian
HS 578T breast = tested on: HS 578T breast
NCI-H460 lung = tested on: NCI-H460 lung
HT29 colon = tested on: HT29 colon
DU-145 prostate = tested on: DU-145 prostate
U251 CNS = tested on: U251 CNS
M14 melanoma = tested on: M14 melanoma
SW-620 colon = tested on: SW-620 colon
HCT-15 colon = tested on: HCT-15 colon
HCT-116 colon = tested on: HCT-116 colon
SN12C renal = tested on: SN12C renal
T-47D breast = tested on: T-47D breast
SK-OV-3 ovarian = tested on: SK-OV-3 ovarian
SK-MEL-28 melanoma = tested on: SK-MEL-28 melanoma
NCI-H226 lung = tested on: NCI-H226 lung
SNB-75 CNS = tested on: SNB-75 CNS
HOP-62 NSCLC = tested on: HOP-62 NSCLC
786-0 renal = tested on: 786-0 renal
SNB-19 CNS = tested on: SNB-19 CNS
MCF7 breast = tested on: MCF7 breast
OVCAR-8 ovarian = tested on: OVCAR-8 ovarian
PC-3 prostate = tested on: PC-3 prostate
KM12 colon = tested on: KM12 colon
NCI-H23 lung = tested on: NCI-H23 lung
HCC-2998 colon = tested on: HCC-2998 colon
LOX IMVI melanoma = tested on: LOX IMVI melanoma
K-562 leukemia = tested on: K-562 leukemia
CCRF-CEM leukemia = tested on: CCRF-CEM leukemia
HL-60(TB) leukemia = tested on: HL-60(TB) leukemia
A498 renal = tested on: A498 renal
UACC-257 melanoma = tested on: UACC-257 melanoma
MOLT-4 leukemia = tested on: MOLT-4 leukemia
OVCAR-3 ovarian = tested on: OVCAR-3 ovarian
NCI-H522 lung = tested on: NCI-H522 lung
SK-MEL-5 melanoma = tested on: SK-MEL-5 melanoma
SF-539 CNS = tested on: SF-539 CNS
BT-549 breast = tested on: BT-549 breast
HOP-92 NSCLC = tested on: HOP-92 NSCLC
A549 NSCLC = tested on: A549 NSCLC
IGROV1 ovarian = tested on: IGROV1 ovarian

Nc1ccn(C2OC(CO)C(O)C2(F)F)c(=O)n1 (stereo unspecified)
GI50 (MDA-MB-435): 18.9 nM | TGI (MDA-MB-435): > 100 µM | GI50 (MDA-MB-231 breast): 7.26 µM and 0.924 µM | TGI (MDA-MB-231 breast): > 100 µM | GI50 (RPMI-8226 leukemia): 561 nM | TGI (RPMI-8226 leukemia): > 100 µM | GI50 (MALME-3M melanoma): 88.3 nM | GI50 (COLO 205 colon): 568 nM | TGI (COLO 205 colon): > 100 µM | TGI (SK-MEL-2 melanoma): > 100 µM | GI50 (OVCAR-5 ovarian): 182 nM | TGI (OVCAR-5 ovarian): > 100 µM | GI50 (ACHN renal): 25.2 nM and 3.79 nM | TGI (ACHN renal): 3.48 µM | GI50 (OVCAR-4 ovarian): > 100 µM | TGI (OVCAR-4 ovarian): > 100 µM | GI50 (TK-10 renal): > 100 µM | TGI (TK-10 renal): > 100 µM | GI50 (CAKI-1 renal): 9.25 nM | TGI (CAKI-1 renal): 2.55 µM and 21.4 µM | GI50 (MDA-N): 64.7 nM | TGI (MDA-N): > 100 µM | GI50 (RXF 393 renal): 36.3 nM | GI50 (UACC-62 melanoma): 38.3 nM | GI50 (UO-31 renal): 17.5 nM | TGI (UO-31 renal): 685 nM and 433 nM and 327 nM | GI50 (SF-295 CNS): 38.9 nM | TGI (SF-295 CNS): 0.0216 µM | GI50 (SR leukemia): 57.9 nM | TGI (EKVX NSCLC): > 100 µM | GI50 (SF-268 CNS): 37.8 nM | GI50 (NCI/ADR-RES ovarian): 14.4 nM | GI50 (HS 578T breast): > 100 µM | TGI (HS 578T breast): > 100 µM | GI50 (NCI-H460 lung): 6.51 nM | TGI (HT29 colon): > 100 µM | GI50 (DU-145 prostate): 27.4 nM | GI50 (U251 CNS): 22.1 nM | TGI (U251 CNS): > 100 µM | GI50 (M14 melanoma): 6.39 nM | TGI (M14 melanoma): 148 nM and 24.9 nM | GI50 (SW-620 colon): 342 nM and 325 nM | TGI (SW-620 colon): > 100 µM | GI50 (HCT-15 colon): 2200 nM | TGI (HCT-15 colon): > 100 µM | GI50 (HCT-116 colon): 7.46 nM | TGI (HCT-116 colon): > 100 µM | GI50 (SN12C renal): 39.1 nM | TGI (SN12C renal): 946 nM and 1110 nM | GI50 (T-47D breast): 1010 nM and 1390 nM | GI50 (SK-OV-3 ovarian): 215 nM and 307 nM | TGI (SK-OV-3 ovarian): > 100 µM | TGI (SK-MEL-28 melanoma): > 100 µM | GI50 (NCI-H226 lung): 146 nM and 95 nM | TGI (NCI-H226 lung): > 100 µM | GI50 (SNB-75 CNS): 247 nM and 25.8 nM and 30.6 nM | TGI (SNB-75 CNS): 0.944 µM | GI50 (HOP-62 NSCLC): 25.5 nM | TGI (HOP-62 NSCLC): 0.805 µM and 3.16 µM | GI50 (786-0 renal): 3.9 nM | GI50 (SNB-19 CNS): 13.1 nM | TGI (SNB-19 CNS): 70.1 µM | GI50 (MCF7 breast): 5.52 nM | TGI (MCF7 breast): > 100 µM | GI50 (OVCAR-8 ovarian): 12.2 nM | TGI (OVCAR-8 ovarian): 1.02 µM | TGI (PC-3 prostate): > 100 µM | GI50 (KM12 colon): 2840 nM | TGI (KM12 colon): > 100 µM | GI50 (NCI-H23 lung): 7.88 nM | GI50 (HCC-2998 colon): 940 nM | TGI (HCC-2998 colon): > 100 µM | GI50 (LOX IMVI melanoma): 28.5 nM | TGI (LOX IMVI melanoma): > 100 µM | GI50 (K-562 leukemia): 82.4 nM | GI50 (CCRF-CEM leukemia): 61.4 nM and 26.8 nM | GI50 (HL-60(TB) leukemia): 28.6 nM | TGI (HL-60(TB) leukemia): 0.22 µM | GI50 (A498 renal): 54.8 nM | TGI (UACC-257 melanoma): > 100 µM | GI50 (MOLT-4 leukemia): 44.1 nM | GI50 (OVCAR-3 ovarian): 3.62 µM | TGI (OVCAR-3 ovarian): > 100 µM | GI50 (NCI-H522 lung): 1350 nM | GI50 (SK-MEL-5 melanoma): 39.2 nM | TGI (SK-MEL-5 melanoma): > 100 µM | GI50 (SF-539 CNS): 16.7 nM | TGI (SF-539 CNS): 553 nM and 63.3 nM | GI50 (BT-549 breast): 74.4 nM and 17.8 nM | TGI (BT-549 breast): > 100 µM | GI50 (HOP-92 NSCLC): 223 nM | GI50 (A549 NSCLC): 15.8 nM | TGI (A549 NSCLC): > 100 µM

CN(C)c1ccc(/C=C2\C[C@H]3[C@@H]4CCc5cc(OCCN6CCCC6)ccc5[C@H]4CC[C@]3(C)[C@H]2O)cc1
TGI (MDA-MB-435): 39 µM | TGI (MDA-MB-231 breast): 16.4 µM | TGI (RPMI-8226 leukemia): > 63.8 µM | TGI (MALME-3M melanoma): > 30.2 µM | TGI (COLO 205 colon): 27.9 µM | TGI (SK-MEL-2 melanoma): 34.8 µM | TGI (OVCAR-5 ovarian): 31.1 µM | TGI (ACHN renal): 42.9 µM | TGI (OVCAR-4 ovarian): > 58.8 µM | TGI (TK-10 renal): 11.6 µM | TGI (CAKI-1 renal): 30 µM | TGI (MDA-N): 46.3 µM | TGI (RXF 393 renal): 33.9 µM | TGI (UACC-62 melanoma): 39.5 µM | TGI (UO-31 renal): 16800 nM | TGI (SF-295 CNS): 30.4 µM | TGI (SR leukemia): 10.2 µM | TGI (EKVX NSCLC): 41.8 µM | TGI (SF-268 CNS): 61.7 µM | TGI (NCI/ADR-RES ovarian): 53.6 µM | TGI (HS 578T breast): > 61.9 µM | TGI (NCI-H460 lung): 30.2 µM | TGI (HT29 colon): > 25.7 µM | TGI (DU-145 prostate): 26.2 µM | TGI (U251 CNS): 17.6 µM | TGI (SW-620 colon): 18.6 µM | TGI (HCT-15 colon): > 100 µM | TGI (HCT-116 colon): 8.78 µM | TGI (SN12C renal): 47400 nM | TGI (T-47D breast): 47.5 µM | TGI (SK-OV-3 ovarian): 31.7 µM | TGI (SK-MEL-28 melanoma): 11.9 µM | TGI (NCI-H226 lung): 37.4 µM | TGI (SNB-75 CNS): 28 µM | TGI (HOP-62 NSCLC): 35.5 µM | TGI (786-0 renal): 5.05 µM | TGI (SNB-19 CNS): 46.1 µM | TGI (MCF7 breast): 30.1 µM | TGI (OVCAR-8 ovarian): 18.9 µM | TGI (PC-3 prostate): 48.9 µM | TGI (KM12 colon): > 60.2 µM | TGI (NCI-H23 lung): 31.4 µM | TGI (HCC-2998 colon): 14.5 µM | TGI (LOX IMVI melanoma): > 100 µM | TGI (K-562 leukemia): > 37.5 µM | TGI (CCRF-CEM leukemia): 5.99 µM | TGI (HL-60(TB) leukemia): 43.3 µM | TGI (A498 renal): 34.9 µM | TGI (UACC-257 melanoma): 19.5 µM | TGI (MOLT-4 leukemia): 46 µM | TGI (OVCAR-3 ovarian): 30.9 µM | TGI (NCI-H522 lung): 7.69 µM | TGI (IGROV1 ovarian): 39.7 µM | TGI (SK-MEL-5 melanoma): 22.9 µM | TGI (SF-539 CNS): 22000 nM | TGI (BT-549 breast): 31.1 µM | TGI (HOP-92 NSCLC): 24.7 µM | TGI (A549 NSCLC): 20.3 µM
